Results taken from patent US20230085307A1, “PYRIDAZINONE COMPOUND AND HERBICIDE” (NISSAN CHEMICAL CORPORATION, priority 2019, published 2023).

What was measured:
[1] = tested on: wild oat; assay: Test Example 4: herbicidal effect by soil treatment (Table 19, symbol I); format: in vivo, wild oat (Avena fatua)
Method in brief: (§1)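 Step 1: sow seeds in sterilized diluvial soil, cover ~1.5 cm. Step 2: spray diluted emulsion onto soil surface at predetermined rate. Step 3: greenhouse, 25–30° C, three weeks. Step 4: grade effect on each plant by earlier criteria.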

[2] = tested on: late watergrass; assay: Test Example 1: herbicidal activity, application before weed generation under submerged conditions (Table 16, symbol A); format: in vivo, late watergrass (Echinochloa oryzicola); details: 320 g/ha applied herbicide
Method in brief: (§2)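 Alluvial soil was flooded to 4 cm depth, weed seeds were sown mixed and 2.5-leaf rice seedlings were transplanted. On sowing day, the compound's emulsion, diluted in water to a set dose, was applied to the water surface. Plants grew at 25–30 °C and were scored 0–5 after three weeks.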

[3] = tested on: persian speedwell; assay: Test Example 5: herbicidal effect by foliage application, plastic box (Table 20, symbol R); format: in vivo, Persian speedwell (Veronica persica); details: foliage application, evaluated three weeks after application
Method in brief: (§3)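 Foliar spray test: emulsion formulation diluted in water to a set application rate, sprayed onto 14-day-old plants raised in diluvial soil at 25° C to 30° C under glass. Both herbicidal effect and crop effect rated visually three weeks later.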

[4] = tested on: lambsquarters; assay: Test Example 5: herbicidal effect by foliage application, plastic box (Table 20, symbol O); format: in vivo, lambsquarters (Chenopodium album); details: foliage application, evaluated three weeks after application
Method in brief: as §3

[5] = tested on: Italian ryegrass; assay: Test Example 5: herbicidal effect by foliage application, plastic box (Table 20, symbol K); format: in vivo, Italian ryegrass (Lolium multiflorum); details: foliage application, evaluated three weeks after application
Method in brief: as §3

[6] = tested on: green foxtail; assay: Test Example 4: herbicidal effect by soil treatment (Table 19, symbol G); format: in vivo, green foxtail (Setaria viridis)
Method in brief: as §1

[7] = tested on: false cleavers; assay: Test Example 4: herbicidal effect by soil treatment (Table 19, symbol Q); format: in vivo, false cleavers (Galium spurium)
Method in brief: as §1

[8] = tested on: southern crabgrass; assay: Test Example 5: herbicidal effect by foliage application, plastic box (Table 20, symbol F); format: in vivo, southern crabgrass (Digitaria ciliaris); details: foliage application, evaluated three weeks after application
Method in brief: as §3

[9] = tested on: lambsquarters; assay: Test Example 4: herbicidal effect by soil treatment (Table 19, symbol O); format: in vivo, lambsquarters (Chenopodium album)
Method in brief: as §1

[10] = tested on: rice flat sedge; assay: Test Example 3: herbicidal effect by foliage application, Wagner pot (Table 18, symbol E); format: in vivo, rice flat sedge (Cyperus iria)
Method in brief: (§4)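 Plants were sown in alluvial soil held under 0.1–0.5 cm standing water and grown 14 days in a greenhouse at 25–30 °C. An emulsifiable formulation, water-diluted to the set dose, was then sprayed onto the foliage, and effects were scored three weeks later using previously defined criteria.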

[11] = tested on: blackgrass; assay: Test Example 4: herbicidal effect by soil treatment (Table 19, symbol J); format: in vivo, blackgrass (Alopecurus myosuroides)
Method in brief: as §1

[12] = tested on: southern crabgrass; assay: Test Example 4: herbicidal effect by soil treatment (Table 19, symbol F); format: in vivo, southern crabgrass (Digitaria ciliaris)
Method in brief: as §1

[13] = tested on: blackgrass; assay: Test Example 5: herbicidal effect by foliage application, plastic box (Table 20, symbol J); format: in vivo, blackgrass (Alopecurus myosuroides); details: foliage application, evaluated three weeks after application
Method in brief: as §3

[14] = tested on: green foxtail; assay: Test Example 5: herbicidal effect by foliage application, plastic box (Table 20, symbol G); format: in vivo, green foxtail (Setaria viridis); details: foliage application, evaluated three weeks after application
Method in brief: as §3

[15] = tested on: Chinese sprangletop; assay: Test Example 3: herbicidal effect by foliage application, Wagner pot (Table 18, symbol D); format: in vivo, chinese sprangletop (Leptochloa chinensis)
Method in brief: as §4

[16] = tested on: windgrass; assay: Test Example 4: herbicidal effect by soil treatment (Table 19, symbol L); format: in vivo, windgrass (Apera spica-venti)
Method in brief: as §1

[17] = tested on: chickweed; assay: Test Example 5: herbicidal effect by foliage application, plastic box (Table 20, symbol P); format: in vivo, common chickweed (Stellaria media); details: foliage application, evaluated three weeks after application
Method in brief: as §3

[18] = tested on: barnyard grass; assay: Test Example 5: herbicidal effect by foliage application, plastic box (Table 20, symbol H); format: in vivo, barnyard grass (Echinochloa crus-galli); details: foliage application, evaluated three weeks after application
Method in brief: as §3

[19] = tested on: redroot pigweed; assay: Test Example 4: herbicidal effect by soil treatment (Table 19, symbol N); format: in vivo, redroot pigweed (Amaranthus retroflexus)
Method in brief: as §1

[20] = tested on: Italian ryegrass; assay: Test Example 4: herbicidal effect by soil treatment (Table 19, symbol K); format: in vivo, Italian ryegrass (Lolium multiflorum)
Method in brief: as §1

[21] = tested on: wild oat; assay: Test Example 5: herbicidal effect by foliage application, plastic box (Table 20, symbol I); format: in vivo, wild oat (Avena fatua); details: foliage application, evaluated three weeks after application
Method in brief: as §3

[22] = tested on: redroot pigweed; assay: Test Example 5: herbicidal effect by foliage application, plastic box (Table 20, symbol N); format: in vivo, redroot pigweed (Amaranthus retroflexus); details: foliage application, evaluated three weeks after application
Method in brief: as §3

[23] = tested on: windgrass; assay: Test Example 5: herbicidal effect by foliage application, plastic box (Table 20, symbol L); format: in vivo, windgrass (Apera spica-venti); details: foliage application, evaluated three weeks after application
Method in brief: as §3

[24] = tested on: barnyard grass; assay: Test Example 3: herbicidal effect by foliage application, Wagner pot (Table 18, symbol H); format: in vivo, barnyard grass (Echinochloa crus-galli)
Method in brief: as §4

[25] = tested on: velvetleaf; assay: Test Example 5: herbicidal effect by foliage application, plastic box (Table 20, symbol M); format: in vivo, velvetleaf (Abutilon theophrasti); details: foliage application, evaluated three weeks after application
Method in brief: as §3

[26] = tested on: Japanese bulrush; assay: Test Example 1: herbicidal activity, application before weed generation under submerged conditions (Table 16, symbol B); format: in vivo, Japanese bulrush (Schoenoplectus juncoides); details: 320 g/ha applied herbicide
Method in brief: as §2

[27] = tested on: velvetleaf; assay: Test Example 4: herbicidal effect by soil treatment (Table 19, symbol M); format: in vivo, velvetleaf (Abutilon theophrasti)
Method in brief: as §1

[28] = tested on: barnyard grass; assay: Test Example 4: herbicidal effect by soil treatment (Table 19, symbol H); format: in vivo, barnyard grass (Echinochloa crus-galli)
Method in brief: as §1

[29] = tested on: oval-leafed pondweed; assay: Test Example 1: herbicidal activity, application before weed generation under submerged conditions (Table 16, symbol C); format: in vivo, oval-leafed pondweed (Monochoria vaginalis); details: 320 g/ha applied herbicide
Method in brief: as §2

[30] = tested on: chickweed; assay: Test Example 4: herbicidal effect by soil treatment (Table 19, symbol P); format: in vivo, common chickweed (Stellaria media); details: amount of applied herbicide 320 g/ha
Method in brief: as §1

[31] = amount of applied herbicide 320 g/ha

CCCC(=O)Oc1c(C)nn(C)c(=O)c1-c1c(-c2ccc(Cl)c(Cl)c2)sc2ccc(F)cc12 [2-082]
herbicidal effect rating, I: wild oat ([1]; 320 g/ha): 0 (Herbicidal rate of 5% or less (almost no effect)) | Herbicidal effect on A: late watergrass (grade 0-5) [2]: 2 (Herbicidal rate of 20% or more and less than 40%) | herbicidal effect on R: persian speedwell ([3]; 320 g/ha): 3 (Herbicidal rate of 40% or more and less than 70%) | herbicidal effect on O: lambsquarters ([4]; 320 g/ha): 3 (Herbicidal rate of 40% or more and less than 70%) | herbicidal effect on K: Italian ryegrass ([5]; 320 g/ha): 0 (Herbicidal rate of 5% or less (almost no effect)) | herbicidal effect rating, G: green foxtail ([6]; 320 g/ha): 0 (Herbicidal rate of 5% or less (almost no effect)) | herbicidal effect rating, Q: false cleavers ([7]; 320 g/ha): 0 (Herbicidal rate of 5% or less (almost no effect)) | herbicidal effect on F: southern crabgrass ([8]; 320 g/ha): 0 (Herbicidal rate of 5% or less (almost no effect)) | herbicidal effect rating, O: lambsquarters ([9]; 320 g/ha): 2 (Herbicidal rate of 20% or more and less than 40%) | herbicidal effect on E (rice flat sedge), rating 0-5 ([10]; 320 g/ha): 4 (Herbicidal rate of 70% or more and less than 90%) | herbicidal effect rating, J: blackgrass ([11]; 320 g/ha): 0 (Herbicidal rate of 5% or less (almost no effect)) | herbicidal effect rating, F: southern crabgrass ([12]; 320 g/ha): 1 (Herbicidal rate of 5% or more and less than 20%) | herbicidal effect on J: blackgrass ([13]; 320 g/ha): 0 (Herbicidal rate of 5% or less (almost no effect)) | herbicidal effect on G: green foxtail ([14]; 320 g/ha): 0 (Herbicidal rate of 5% or less (almost no effect)) | herbicidal effect on D (Chinese sprangletop), rating 0-5 ([15]; 320 g/ha): 2 (Herbicidal rate of 20% or more and less than 40%) | herbicidal effect rating, L: windgrass ([16]; 320 g/ha): 0 (Herbicidal rate of 5% or less (almost no effect)) | herbicidal effect on P: chickweed ([17]; 320 g/ha): 5 (Herbicidal rate of 90% or more (almost completely withered)) | herbicidal effect on H: barnyard grass ([18]; 320 g/ha): 0 (Herbicidal rate of 5% or less (almost no effect)) | herbicidal effect rating, N: redroot pigweed ([19]; 320 g/ha): 3 (Herbicidal rate of 40% or more and less than 70%) | herbicidal effect rating, K: Italian ryegrass ([20]; 320 g/ha): 0 (Herbicidal rate of 5% or less (almost no effect)) | herbicidal effect on I: wild oat ([21]; 320 g/ha): 0 (Herbicidal rate of 5% or less (almost no effect)) | herbicidal effect on N: redroot pigweed ([22]; 320 g/ha): 3 (Herbicidal rate of 40% or more and less than 70%) | herbicidal effect on L: windgrass ([23]; 320 g/ha): 0 (Herbicidal rate of 5% or less (almost no effect)) | herbicidal effect on H (barnyard grass), rating 0-5 ([24]; 320 g/ha): 4 (Herbicidal rate of 70% or more and less than 90%) | herbicidal effect on M: velvetleaf ([25]; 320 g/ha): 3 (Herbicidal rate of 40% or more and less than 70%) | Herbicidal effect on B: Japanese bulrush (grade 0-5) [26]: 3 (Herbicidal rate of 40% or more and less than 70%) | herbicidal effect rating, M: velvetleaf ([27]; 320 g/ha): 0 (Herbicidal rate of 5% or less (almost no effect)) | herbicidal effect rating, H: barnyard grass ([28]; 320 g/ha): 0 (Herbicidal rate of 5% or less (almost no effect)) | Herbicidal effect on C: oval-leafed pondweed (grade 0-5) [29]: 0 (Herbicidal rate of 5% or less (almost no effect))

Cc1nn(C)c(=O)c(-c2c(-c3ccc(CSCC(F)F)cc3)sc3ccc(F)cc23)c1O [2-330]
herbicidal effect on I: wild oat [1, 31]: 0 (Herbicidal rate of 5% or less (almost no effect)) | Herbicidal effect on A: late watergrass (grade 0-5) [2]: 3 (Herbicidal rate of 40% or more and less than 70%) | R: persian speedwell, herbicidal effect (criteria 0-5) ([3]; AAH 320 g/ha): 5 (Herbicidal rate of 90% or more (almost completely withered)) | O: lambsquarters, herbicidal effect (criteria 0-5) ([4]; AAH 320 g/ha): 5 (Herbicidal rate of 90% or more (almost completely withered)) | K: Italian ryegrass, herbicidal effect (criteria 0-5) ([5]; AAH 320 g/ha): 5 (Herbicidal rate of 90% or more (almost completely withered)) | herbicidal effect on G: green foxtail [6, 31]: 1 (Herbicidal rate of 5% or more and less than 20%) | herbicidal effect on Q: false cleavers [7, 31]: 0 (Herbicidal rate of 5% or less (almost no effect)) | F: southern crabgrass, herbicidal effect (criteria 0-5) ([8]; AAH 320 g/ha): 5 (Herbicidal rate of 90% or more (almost completely withered)) | herbicidal effect on O: lambsquarters [9, 31]: 3 (Herbicidal rate of 40% or more and less than 70%) | herbicidal effect on E: rice flat sedge [10, 31]: 4 (Herbicidal rate of 70% or more and less than 90%) | herbicidal effect on J: blackgrass [11, 31]: 0 (Herbicidal rate of 5% or less (almost no effect)) | herbicidal effect on F: southern crabgrass [12, 31]: 3 (Herbicidal rate of 40% or more and less than 70%) | J: blackgrass, herbicidal effect (criteria 0-5) ([13]; AAH 320 g/ha): 4 (Herbicidal rate of 70% or more and less than 90%) | G: green foxtail, herbicidal effect (criteria 0-5) ([14]; AAH 320 g/ha): 5 (Herbicidal rate of 90% or more (almost completely withered)) | herbicidal effect on D: Chinese sprangletop [15, 31]: 2 (Herbicidal rate of 20% or more and less than 40%) | herbicidal effect on L: windgrass [16, 31]: 0 (Herbicidal rate of 5% or less (almost no effect)) | P: chickweed, herbicidal effect (criteria 0-5) ([17]; AAH 320 g/ha): 5 (Herbicidal rate of 90% or more (almost completely withered)) | H: barnyard grass, herbicidal effect (criteria 0-5) ([18]; AAH 320 g/ha): 5 (Herbicidal rate of 90% or more (almost completely withered)) | herbicidal effect on N: redroot pigweed [19, 31]: 4 (Herbicidal rate of 70% or more and less than 90%) | herbicidal effect on K: Italian ryegrass [20, 31]: 4 (Herbicidal rate of 70% or more and less than 90%) | I: wild oat, herbicidal effect (criteria 0-5) ([21]; AAH 320 g/ha): 4 (Herbicidal rate of 70% or more and less than 90%) | N: redroot pigweed, herbicidal effect (criteria 0-5) ([22]; AAH 320 g/ha): 5 (Herbicidal rate of 90% or more (almost completely withered)) | L: windgrass, herbicidal effect (criteria 0-5) ([23]; AAH 320 g/ha): 5 (Herbicidal rate of 90% or more (almost completely withered)) | herbicidal effect on P: chickweed [30]: 0 (Herbicidal rate of 5% or less (almost no effect)) | herbicidal effect on H: barnyard grass [24, 31]: 5 (Herbicidal rate of 90% or more (almost completely withered)) | M: velvetleaf, herbicidal effect (criteria 0-5) ([25]; AAH 320 g/ha): 5 (Herbicidal rate of 90% or more (almost completely withered)) | Herbicidal effect on B: Japanese bulrush (grade 0-5) [26]: 0 (Herbicidal rate of 5% or less (almost no effect)) | herbicidal effect on M: velvetleaf [27, 31]: 1 (Herbicidal rate of 5% or more and less than 20%) | herbicidal effect on H: barnyard grass [28, 31]: 2 (Herbicidal rate of 20% or more and less than 40%) | Herbicidal effect on C: oval-leafed pondweed (grade 0-5) [29]: 0 (Herbicidal rate of 5% or less (almost no effect))
